Measurements from ChEMBL document CHEMBL4411339, “Design, synthesis and antimycobacterial activity of less lipophilic Q203 derivatives containing alkaline fused ring moieties” (Bioorg Med Chem, 2019).
In brackets after ≈: the same amount, converted by molar mass.

Key:
[1] = test system: Mycobacterium tuberculosis; experiment: Antimycobacterial activity against isoniazid/rifampicin-resistant Mycobacterium tuberculosis isolate 16995 after 7 days by microplate alamar blue assay; format: functional; settings: isolate 16995, 168 h
[2] = test system: Mycobacterium tuberculosis; experiment: Antimycobacterial activity against isoniazid/rifampicin-resistant Mycobacterium tuberculosis isolate 16833 after 7 days by microplate alamar blue assay; format: functional; settings: isolate 16833, 168 h

CO[C@H]1/C=C/O[C@@]2(C)Oc3c(C)c(O)c4c(O)c(c(/C=N/N5CCN(C)CC5)c(O)c4c3C2=O)NC(=O)/C(C)=C\C=C\[C@H](C)[C@H](O)[C@@H](C)[C@@H](O)[C@@H](C)[C@H](OC(C)=O)[C@@H]1C [RIFAMPIN]
MIC [1]: > 40 µM
MIC [2]: > 40 µM

CCc1nc2ccc(Cl)cn2c1C(=O)NCc1ccc2c(c1)CCN(Cc1ccc(C(F)(F)F)nc1)C2
MIC [1]: 0.047 µM (≈ 0.0248 µg/mL)
MIC [2]: < 0.035 µM

CCc1nc2ccc(Cl)cn2c1C(=O)NCc1ccc2c(c1)CCN(Cc1ccc(Br)cc1)C2
MIC [1]: < 0.035 µM
MIC [2]: < 0.035 µM

CCc1nc2ccc(Cl)cn2c1C(=O)NCc1ccc2c(c1)CCN(Cc1ccc(C(C)(C)C)cc1)C2
MIC [1]: < 0.035 µM
MIC [2]: < 0.035 µM

CCc1nc2ccc(Cl)cn2c1C(=O)NCc1ccc2c(c1)CCN(Cc1ccc(C)cc1)C2
MIC [1]: < 0.035 µM
MIC [2]: < 0.035 µM

CCc1nc2ccc(Cl)cn2c1C(=O)NCc1ccc2c(c1)CCN(CCc1ccc(C(F)(F)F)cn1)C2
MIC [1]: < 0.035 µM
MIC [2]: < 0.035 µM

CCc1nc2cc(Cl)ccn2c1C(=O)NCc1ccc2c(c1)CCN(Cc1ccc([N+](=O)[O-])o1)C2
MIC [1]: 0.44 µM (≈ 0.217 µg/mL)
MIC [2]: 1.24 µM (≈ 0.612 µg/mL)

CCc1nc2cc(Cl)ccn2c1C(=O)NCc1ccc2c(c1)CCN(Cc1ccc(OC)cc1)C2
MIC [1]: 0.9 µM (≈ 0.44 µg/mL)
MIC [2]: 0.096 µM (≈ 0.0469 µg/mL)

NNC(=O)c1ccncc1 [ISONIAZID]
MIC [1]: > 40 µM
MIC [2]: > 40 µM

O=c1nc(N2CCN(CC3CCCCC3)CC2)sc2c([N+](=O)[O-])cc(C(F)(F)F)cc12 [MACOZINONE]
MIC [1]: < 0.035 µM
MIC [2]: < 0.035 µM

CCc1nc2cc(Cl)ccn2c1C(=O)NCc1ccc2c(c1)CCN(Cc1cc(F)cc(F)c1)C2
MIC [1]: 0.11 µM (≈ 0.0544 µg/mL)
MIC [2]: 0.095 µM (≈ 0.047 µg/mL)

CCc1nc2ccc(Cl)cn2c1C(=O)NCc1ccc2c(c1)CN(C(C)c1ccc(OC(F)(F)F)cc1)C2 (centres undefined)
MIC [1]: < 0.035 µM
MIC [2]: < 0.035 µM

CCc1nc2cc(Cl)ccn2c1C(=O)NCc1ccc2c(c1)CCN(Cc1ccc(C(C)(C)C)cc1)C2
MIC [1]: < 0.035 µM
MIC [2]: < 0.035 µM

CCc1nc2ccc(Cl)cn2c1C(=O)NCc1ccc2c(c1)CCN(Cc1ccc(C(F)(F)F)cn1)C2
MIC [1]: 0.046 µM (≈ 0.0243 µg/mL)
MIC [2]: 0.049 µM (≈ 0.0259 µg/mL)

CCc1nc2ccc(Cl)cn2c1C(=O)NCc1ccc2c(c1)CCN(Cc1ccc(F)cc1)C2
MIC [1]: < 0.035 µM
MIC [2]: < 0.035 µM

CCc1nc2ccc(Cl)cn2c1C(=O)NCc1ccc2c(c1)CCN(Cc1ccc(C(F)(F)F)cc1)C2
MIC [1]: < 0.035 µM
MIC [2]: < 0.035 µM

CCc1nc2ccc(Cl)cn2c1C(=O)NCc1ccc(N2CCC(c3ccc(OC(F)(F)F)cc3)CC2)cc1 [TELACEBEC]
MIC [1]: < 0.035 µM
MIC [2]: < 0.035 µM

CCc1nc2ccc(Cl)cn2c1C(=O)NCc1ccc2c(c1)CCN(Cc1cc(F)cc(F)c1)C2
MIC [1]: < 0.035 µM
MIC [2]: < 0.035 µM

CCc1nc2ccc(Cl)cn2c1C(=O)NCc1ccc2c(c1)CN(Cc1ccc(OC(F)(F)F)cc1)C2
MIC [1]: < 0.035 µM
MIC [2]: < 0.035 µM

CCc1nc2cc(Cl)ccn2c1C(=O)NCc1ccc2c(c1)CCN(CCc1ccc(C(F)(F)F)cn1)C2
MIC [1]: 0.061 µM (≈ 0.0331 µg/mL)
MIC [2]: < 0.035 µM

CCc1nc2ccc(Cl)cn2c1C(=O)NCc1ccc2c(c1)CCN(Cc1ccc(OC)cc1)C2
MIC [1]: < 0.035 µM
MIC [2]: < 0.035 µM

CCc1nc2ccc(Cl)cn2c1C(=O)NCc1ccc2c(c1)CCN(CCc1ccc(C(F)(F)F)nc1)C2
MIC [1]: < 0.035 µM
MIC [2]: < 0.035 µM
